Experimental data reported in patent US20190225670A1, “COMPOUNDS AND METHODS FOR ACTIVATING TIE2 SIGNALING” (ASCLEPIX THERAPEUTICS, LLC, priority 2016, published 2019).

Experiments:
Type in all cases: cell-based, human
[1] = test system: STAT3; experiment: Western blot of phospho-STAT3 (Y705) in MEC lysates treated with Ang2 and AXT107
Method: (§1) A confluent monolayer of human microvascular endothelial cells (HMEC) was serum starved with EBM-2 overnight. After a 90 min treatment with AXT107 at concentrations of 0, 10, 32, and 100 μM, the cells were treated for 15 min with 1 mM sodium orthovanadate. Next the cells were treated with Angiopoietin-2 (Ang-2) at 200 ng/mL for 15 min. Following cell lysis, the lysates were immunoblotted for pTie2 (Y992), pSTAT3 (Y705), and pAkt (S473).
(§2) For Ang1/2 signaling investigations, cell culture dishes (10 cm diameter) were coated with 5 μg/ml fibronectin (FN1; Sigma-Aldrich, St. Louis, Mo.) for two hours at 37° C. The FN1 solution was then removed by aspiration and 5×10^6 microvascular endothelial cells (MECs; Lonza, Walkersville, Md.) were plated in EGM-2MV media (Lonza) and cultured for forty-eight hours at 37° C. […] Specific proteins were identified by Western blot, using the following primary antibodies: Cell Signaling—phospho-Tie2 (Y992) (Cat#: 4221), Tie2 (Cat#: 7403), phospho-Stat3 (Y705) (Cat#: 4113), Stat3 (Cat#: 4904), phospho-Akt (S473) (Cat#: 4058), Akt (Cat#: 9272), phospho-p44/42 MAPK (T202/Y204) (Cat#: 4370), p44/42 MAPK (Cat#: 4695); BD Transduction Laboratories—β1 integrin (Cat#: 610467); Millipore—α5 integrin (Cat#: AB1928) and detected with HRP-conjugated goat anti-rabbit and sheep anti-mouse secondary antibodies (GE healthcare).

[2] = test system: Akt; experiment: Western blot of phospho-Akt (S473) in MEC lysates treated with Ang2 and AXT107
Method: as §1, §2

[3] = test system: myosin light chain 2 (MLC2); experiment: Western blot of pMLC2 in MECs treated with Ang2 and AXT107; conditions: AXT107 and 200 ng/ml Ang2
Method: Phosphorylation of Tie2 is known to stimulate the Rap1-GTPase pathway, leading to a reduction in the phosphorylation of the downstream motor protein myosin light chain 2 (MLC2) associated with actin rearrangement.
as §2, with “forty-eight hours at 37° C. The cells were then serum starved for sixteen hours in serum-free EGM-2 base media (Lonza). AXT107 (0-100 μM, as indicated) was subsequently added to each culture and incubated for seventy-five minutes at 37°” for “forty-eight hours at 37°”

Sequence: LRRFSTAPFAFIDINDVINF [AXT107]
- STAT3 phosphorylation [1]: increased phosphorylation
- Akt phosphorylation [2]: increased phosphorylation
- phosphorylation of MLC2 [3]: reduced in a dose-dependent manner
